In PMC3791473 (Nature Communications, 2013):
Peptide text beside a SMILES is read from it.

Biological target: T1, Ptr2p (Saccharomyces cerevisiae, UniProt P32901)
T1 sequence (P32901 1-601): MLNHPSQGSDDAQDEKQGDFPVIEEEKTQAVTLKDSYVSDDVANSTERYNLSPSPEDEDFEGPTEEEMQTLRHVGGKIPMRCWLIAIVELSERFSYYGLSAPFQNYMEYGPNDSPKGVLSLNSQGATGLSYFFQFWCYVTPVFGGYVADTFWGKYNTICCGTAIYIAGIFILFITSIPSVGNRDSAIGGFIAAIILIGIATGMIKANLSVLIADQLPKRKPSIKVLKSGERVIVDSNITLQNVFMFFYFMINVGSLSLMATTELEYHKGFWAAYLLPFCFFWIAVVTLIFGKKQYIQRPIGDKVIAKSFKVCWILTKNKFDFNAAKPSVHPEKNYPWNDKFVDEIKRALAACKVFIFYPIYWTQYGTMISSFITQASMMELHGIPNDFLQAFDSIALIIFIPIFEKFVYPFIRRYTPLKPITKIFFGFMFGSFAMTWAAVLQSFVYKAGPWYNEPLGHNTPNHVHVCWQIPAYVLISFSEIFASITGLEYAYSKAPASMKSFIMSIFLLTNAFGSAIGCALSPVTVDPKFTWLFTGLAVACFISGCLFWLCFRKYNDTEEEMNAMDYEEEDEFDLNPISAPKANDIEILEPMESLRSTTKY
Experiment: Fluorescence-based competitive uptake
Type: cell-based
Conditions: not given

| Compound | Ki |
| --- | --- |
| N[C@@H](Cc1c[nH]c2ccccc12)C(=O)N[C@@H](Cc1ccccc1)C(=O)O [N-terminal W, C-terminal F, Trp-Phe] (H-Trp-Phe-OH) | 20 µM |
| NCC(=O)NCC(=O)NCC(=O)O [Gly–Gly–Gly] (H-Gly-Gly-Gly-OH; N-terminus and C-terminus assumed) | 48000 µM |
| CC(C)C[C@H](NC(=O)CN)C(=O)O [N-terminal G, C-terminal L, Gly-Leu] | 600 µM |
| CC(C)C[C@H](NC(=O)[C@H](C)N)C(=O)O [N-terminal A, C-terminal L, Ala–Leu] (H-Ala-Leu-OH; N-terminus and C-terminus assumed) | 310 µM |
| CC(C)C[C@H](N)C(=O)N[C@@H](Cc1c[nH]cn1)C(=O)O [N-terminal L, C-terminal H, Leu-His] (H-Leu-His-OH; N-terminus and C-terminus assumed) | 130 µM |
| CC(C)C[C@H](N)C(=O)NCC(=O)O [N-terminal L, C-terminal G, Leu-Gly] (H-Leu-Gly-OH; N-terminus and C-terminus assumed) | 360 µM |
| C[C@H](N)C(=O)N[C@@H](C)C(=O)O [N-terminal A, C-terminal A, Ala–Ala] (H-Ala-Ala-OH; N-terminus and C-terminus assumed) | 400 µM |
| CC(C)C[C@H](NC(=O)[C@@H](N)Cc1c[nH]cn1)C(=O)O [N-terminal H, C-terminal L, His–Leu] (H-His-Leu-OH; N-terminus and C-terminus assumed) | 50 µM |

Same assay, conditions: SC-Ptr2p cells

| Compound | competitive inhibition of β-Ala–Lys (AMCA) uptake |
| --- | --- |
| carnosine [reference compound] | inhibited |

Same assay, conditions: read-out: Km of β-Ala–Lys (AMCA) uptake; SC-Ptr2p cells; (±s.d.)

| Compound | Km |
| --- | --- |
| β-Ala–Lys (AMCA) [reference compound] | 160 µM |
